In ChEMBL document CHEMBL6109105, “Design, synthesis and antibacterial evaluation of oxazolidinone derivatives containing N-methylglycyl or quaternary ammonium salts” (Bioorg Med Chem, 2025):
In brackets after ≈: the same amount, converted by molar mass.

How the values were obtained:
Enterococcus faecalis = assay: Antibacterial activity against Enterococcus faecalis ATCC 29212 assessed as inhibition of bacterial growth incubated for 16 to 18 hrs by microbroth dilution method; type: functional; settings: time 16-18 hrs, read-out: MIC100
[1] = test system: Stenotrophomonas maltophilia; assay: Antibacterial activity against Stenotrophomonas maltophilia ATCC 17808 assessed as inhibition of bacterial growth incubated for 16 to 18 hrs by microbroth dilution method; type: functional; settings: time 16-18 hrs, read-out: MIC100
[2] = Hemolytic activity in sheep RBC assessed as hemolysis incubated for 1 hrs by microplate reader analysis; type: toxicity, cell-based, Ovis aries, Erythrocyte; settings: sheep red blood cells
Staphylococcus aureus = assay: Antibacterial activity against Staphylococcus aureus ATCC 29213 assessed as inhibition of bacterial growth incubated for 16 to 18 hrs by microbroth dilution method; type: functional; settings: time 16-18 hrs, read-out: MIC100
Escherichia coli = assay: Antibacterial activity against Escherichia coli ATCC 25922 assessed as inhibition of bacterial growth incubated for 16 to 18 hrs by microbroth dilution method; type: functional; settings: time 16-18 hrs, read-out: MIC100

`CN[C@H](CC(C)C)C(=O)N[C@H]1C(=O)N[C@@H](CC(N)=O)C(=O)N[C@H]2C(=O)N[C@H]3C(=O)N[C@H](C(=O)N[C@H](C(=O)O)c4cc(O)cc(O)c4-c4cc3ccc4O)[C@H](O)c3ccc(c(Cl)c3)Oc3cc2cc(c3O[C@@H]2O[C@H](CO)[C@@H](O)[C@H](O)[C@H]2O[C@H]2C[C@](C)(N)[C@H](O)[C@H](C)O2)Oc2ccc(cc2Cl)[C@H]1O` [VANCOMYCIN] gave an MIC (Enterococcus faecalis) of 1 µg/mL (≈ 0.69 µM).

With `CC[N+](C)(C)CC(=O)N1CCN(c2ccc(N3C[C@H](CNC(C)=O)OC3=O)cc2F)CC1.[Br-]` the MIC (Enterococcus faecalis) was 32 µg/mL, the MIC [1] was greater than 128 µg/mL and the HC50 at 1 h [2] was greater than 1280 µg/mL. The MIC (Staphylococcus aureus) was 64 µg/mL and the MIC (Escherichia coli) was greater than 128 µg/mL.

For `CC(=O)NC[C@H]1CN(c2ccc(N3CCN(C(=O)CN(C)Cc4cccc(Br)c4)CC3)c(F)c2)C(=O)O1`, the MIC (Enterococcus faecalis) was 4 µg/mL (≈ 6.94 µM), the MIC [1] was greater than 128 µg/mL and the HC50 at 1 h [2] was greater than 1280 µg/mL. For the same compound, the MIC (Staphylococcus aureus) was 8 µg/mL (≈ 13.9 µM) and the MIC (Escherichia coli) was greater than 128 µg/mL.

`CC(=O)NC[C@H]1CN(c2ccc(N3CCN(C(=O)CN(C)Cc4cccc(C#N)c4)CC3)c(F)c2)C(=O)O1` gave an MIC (Enterococcus faecalis) of 4 µg/mL (≈ 7.65 µM), an MIC [1] greater than 128 µg/mL and an HC50 at 1 h [2] greater than 1280 µg/mL. It also gave an MIC (Staphylococcus aureus) of 8 µg/mL (≈ 15.3 µM) and an MIC (Escherichia coli) greater than 128 µg/mL.

With `CC(=O)NC[C@H]1CN(c2ccc(N3CCN(C(=O)C[N+](C)(C)Cc4ccc(C(F)(F)F)cc4)CC3)c(F)c2)C(=O)O1.[Br-]` the MIC (Enterococcus faecalis) was 128 µg/mL, the MIC [1] was greater than 128 µg/mL and the HC50 at 1 h [2] was greater than 1280 µg/mL. The MIC (Staphylococcus aureus) was 128 µg/mL and the MIC (Escherichia coli) was greater than 128 µg/mL.

`CC(=O)NC[C@H]1CN(c2ccc(N3CCN(C(=O)CN(C)Cc4ccccc4)CC3)c(F)c2)C(=O)O1` gave an MIC (Enterococcus faecalis) of 4 µg/mL (≈ 8.04 µM), an MIC [1] greater than 128 µg/mL and an HC50 at 1 h [2] greater than 1280 µg/mL. The MIC (Staphylococcus aureus) was 16 µg/mL (≈ 32.2 µM) and the MIC (Escherichia coli) was greater than 128 µg/mL.

Work on `COc1ccc(CN(C)CC(=O)N2CCN(c3ccc(N4C[C@H](CNC(C)=O)OC4=O)cc3F)CC2)cc1` yielded an MIC (Enterococcus faecalis) of 2 µg/mL (≈ 3.79 µM), an MIC [1] greater than 128 µg/mL and an HC50 at 1 h [2] greater than 1280 µg/mL. For the same compound, the MIC (Staphylococcus aureus) was 16 µg/mL (≈ 30.3 µM) and the MIC (Escherichia coli) was greater than 128 µg/mL.

Compound `CC(=O)NC[C@H]1CN(c2ccc(N3CCN(C(=O)CN(C)Cc4cccc(Cl)c4)CC3)c(F)c2)C(=O)O1` has an MIC (Enterococcus faecalis) of 2 µg/mL (≈ 3.76 µM), an MIC [1] greater than 128 µg/mL and an HC50 at 1 h [2] greater than 1280 µg/mL. The MIC (Staphylococcus aureus) was 8 µg/mL (≈ 15 µM) and the MIC (Escherichia coli) was greater than 128 µg/mL.

`CC(=O)NC[C@H]1CN(c2ccc(N3CCN(C(=O)CN(C)Cc4ccc(C(F)(F)F)cc4)CC3)c(F)c2)C(=O)O1` showed an MIC (Enterococcus faecalis) of 2 µg/mL (≈ 3.54 µM), an MIC [1] greater than 128 µg/mL and an HC50 at 1 h [2] greater than 1280 µg/mL. It also gave an MIC (Staphylococcus aureus) of 16 µg/mL (≈ 28.3 µM) and an MIC (Escherichia coli) greater than 128 µg/mL.

`CCC[N+](C)(C)CC(=O)N1CCN(c2ccc(N3C[C@H](CNC(C)=O)OC3=O)cc2F)CC1.[Br-]` gave an MIC (Enterococcus faecalis) of 64 µg/mL, an MIC [1] greater than 128 µg/mL and an HC50 at 1 h [2] greater than 1280 µg/mL. The MIC (Staphylococcus aureus) was 64 µg/mL and the MIC (Escherichia coli) was greater than 128 µg/mL.

`CC(=O)NC[C@H]1CN(c2ccc(N3CCN(C(=O)CN(C)Cc4cccc([N+](=O)[O-])c4)CC3)c(F)c2)C(=O)O1` showed an MIC (Enterococcus faecalis) of 2 µg/mL (≈ 3.69 µM), an MIC [1] greater than 128 µg/mL and an HC50 at 1 h [2] greater than 1280 µg/mL. It also gave an MIC (Staphylococcus aureus) of 8 µg/mL (≈ 14.7 µM) and an MIC (Escherichia coli) greater than 128 µg/mL.

In the case of `CC(=O)NC[C@H]1CN(c2ccc(N3CCN(C(=O)C[N+](C)(C)Cc4ccccc4)CC3)c(F)c2)C(=O)O1.[Br-]`, the MIC (Enterococcus faecalis) is reported as 4 µg/mL, the MIC [1] is reported as greater than 128 µg/mL and the HC50 at 1 h [2] is reported as greater than 1280 µg/mL. For the same compound, the MIC (Staphylococcus aureus) was 128 µg/mL and the MIC (Escherichia coli) was greater than 128 µg/mL.

For `COc1ccccc1CN(C)CC(=O)N1CCN(c2ccc(N3C[C@H](CNC(C)=O)OC3=O)cc2F)CC1`, the MIC (Enterococcus faecalis) was 2 µg/mL (≈ 3.79 µM), the MIC [1] was greater than 128 µg/mL and the HC50 at 1 h [2] was greater than 1280 µg/mL. The MIC (Staphylococcus aureus) was 16 µg/mL (≈ 30.3 µM) and the MIC (Escherichia coli) was greater than 128 µg/mL.

`CC(=O)NC[C@H]1CN(c2ccc(N3CCN(C(=O)CN(C)Cc4ccc(C)cc4)CC3)c(F)c2)C(=O)O1` gave an MIC (Enterococcus faecalis) of 2 µg/mL (≈ 3.91 µM), an MIC [1] greater than 128 µg/mL and an HC50 at 1 h [2] greater than 1280 µg/mL. For the same compound, the MIC (Staphylococcus aureus) was 16 µg/mL (≈ 31.3 µM) and the MIC (Escherichia coli) was greater than 128 µg/mL.

In the case of `CCCCC[N+](C)(C)CC(=O)N1CCN(c2ccc(N3C[C@H](CNC(C)=O)OC3=O)cc2F)CC1.[Br-]`, the MIC (Enterococcus faecalis) is reported as 16 µg/mL, the MIC [1] is reported as greater than 128 µg/mL and the HC50 at 1 h [2] is reported as greater than 1280 µg/mL. For the same compound, the MIC (Staphylococcus aureus) was greater than 128 µg/mL and the MIC (Escherichia coli) was greater than 128 µg/mL.

Work on `C[C@@H](O)[C@H]1C(=O)N2C(C(=O)O)=C(S[C@@H]3CN[C@H](C(=O)N(C)C)C3)[C@H](C)[C@H]12` [MEROPENEM] yielded an MIC [1] of 0.031 µg/mL (≈ 0.0808 µM) and an MIC (Escherichia coli) of 0.031 µg/mL (≈ 0.0808 µM).
